These results are taken from ChEMBL document CHEMBL4706646, “Synthesis and evaluation of a collection of purine-like C-nucleosides as antikinetoplastid agents” (Eur J Med Chem, 2021).

One data set relates to Trypanosoma cruzi. The experiment in a line: Antitrypanosomal activity against Trypanosoma cruzi infected in human MRC-5 SV2 cells. The class given is functional, organism-based.
The test system of another data set is Leishmania infantum. The experiment in a line: Antileishmanial activity against Leishmania infantum infected in mouse primary macrophages. It is filed as functional, organism-based. The conditions noted are these: Primary macrophage.
Data set [1] can be described thus: Cytotoxicity against mouse primary macrophages assessed as reduction in cell viability. It is filed as cell-based, Macrophage.
Data set [2] relates to Trypanosoma brucei rhodesiense. Description: Antitrypanosomal activity against Trypanosoma brucei rhodesiense. The class given is functional, organism-based.
In data set [3] the test system is Trypanosoma brucei brucei. Description: Antitrypanosomal activity against Trypanosoma brucei brucei. It is filed as functional, organism-based.
A short description of data set [4]: Cytotoxicity against human MRC-5 SV2 cells assessed as reduction in cell viability. The class given is cell-based.

Each structure is given as a SMILES string. pIC50: −log10 of the molar value.

Usually pIC50 stands for the negative decadic logarithm of the IC50, by convention in mol/L. A word on the CC50: it is the concentration at which the toxic effect on the cells reaches its halfway point. In the case of `Nc1ncnn2c([C@@H]3O[C@H](CO)[C@@H](O)[C@H]3O)ccc12`, the pIC50 (in the data set with Trypanosoma cruzi; with Leishmania infantum; in data set [2]; in data set [3]) was above 6.60 each time. In addition, the CC50 in data set [1] and in data set [4] was below 0.25 µM throughout.

With `Nc1ncnn2c([C@@H]3O[C@H](CO)[C@@H](O)[C@H]3O)cc(-c3ccc(Cl)cc3)c12`, the negative logarithm of the IC50 (pIC50) was 6.27 in the data set on Trypanosoma cruzi, 3.63 with Leishmania infantum, 5.43 in data set [2] and 5.41 in data set [3]. For the same compound, the 50% cytotoxic concentration (CC50) in data set [1] was 5 µM; in data set [4], 10.8 µM.

As to `O=c1[nH]cnn2c([C@@H]3O[C@H](CO)[C@@H](O)[C@H]3O)cnc12`, the pIC50 in the data set on Trypanosoma cruzi is 6.22; with Leishmania infantum, 5.50; in data set [2] it was 5.52; in data set [3], 6.30. The CC50 in data set [1] and in data set [4] was above 64 µM throughout.

Regarding `Nc1ncnn2c([C@@H]3O[C@H](CO)[C@@H](O)[C@H]3O)cc(Br)c12`, the pIC50 in the data set on Trypanosoma cruzi was 6.11; in the data set on Leishmania infantum it was 5.95; in data set [2], 6.85; in data set [3], 5.77. Moreover, the cytotoxic concentration (CC50) is 2 µM in data set [1] and at least 11.8 µM in data set [4].

For `Nc1nccn2c([C@@H]3O[C@H](CO)[C@@H](O)[C@H]3O)cnc12`, the pIC50 was below 4.19 in the data set on Trypanosoma cruzi, below 4.19 in the data set with Leishmania infantum, 6.09 in data set [2] and below 4.19 in data set [3]. In addition, the CC50 in data set [1] and in data set [4] was above 64 µM each time.

In the case of `Nc1ncnc2c([C@@H]3O[C@H](CO)[C@@H](O)[C@H]3O)cn(-c3ccc(Cl)c(F)c3)c12`, the pIC50 with Trypanosoma cruzi was 5.98; with Leishmania infantum, below 4.19; in data set [2] it was 4.54; in data set [3] it was 4.39. Also, the CC50 in data set [1] and in data set [4] was above 64 µM throughout.

In the case of `N#C[C@]1(c2ccc3c(N)ncnn23)O[C@H](CO)[C@@H](O)[C@H]1O`, the pIC50 in the data set on Trypanosoma cruzi is below 4.19; in the data set on Leishmania infantum, below 4.19; in data set [2], 5.75; in data set [3] it was 4.99. For the same compound, the CC50 in data set [1] and in data set [4] was above 64 µM each time.

`N#C[C@@]1(c2cc(Br)c3c(N)ncnn23)O[C@H](CO)[C@@H](O)[C@H]1O`: the pIC50 in the data set with Trypanosoma cruzi is 4.41; in the data set on Leishmania infantum it was 4.49; in data set [2], 5.80; in data set [3], 4.89. Further, the CC50 in data set [1] turned out to be 32 µM; in data set [4], 11 µM.

For `Nc1ncnc2c([C@@H]3O[C@H](CO)[C@@H](O)[C@H]3O)cnn12`, the pIC50 in the data set on Trypanosoma cruzi is 5.42; in the data set with Leishmania infantum it was 4.66; in data set [2], 4.47; in data set [3], 4.61. Further, the cytotoxic concentration (CC50) is above 64 µM in data set [1] and 9.32 µM in data set [4].

Regarding `O=c1[nH]cnn2c([C@@H]3O[C@H](CO)[C@@H](O)[C@H]3O)cc(Br)c12`, the pIC50 in the data set with Trypanosoma cruzi is below 4.19; with Leishmania infantum it was below 4.19; in data set [2], 4.70; in data set [3], 4.51. The CC50 in data set [1] and in data set [4] was above 64 µM in each case.

As for `Nc1ncnn2c([C@@H]3O[C@H](CO)C[C@H]3O)cc(-c3ccc(Cl)cc3)c12`, the pIC50 in the data set on Trypanosoma cruzi was 6.64; in the data set on Leishmania infantum, 4.63; in data set [2], 5.78; in data set [3] it was 5.45. The cytotoxic concentration (CC50) in data set [1] was 24 µM; in data set [4], at least 22.3 µM.

Regarding `Nc1ncnn2c([C@@H]3O[C@H](CO)[C@@H](O)[C@H]3O)cc(-c3ccc(Cl)c(F)c3)c12`, the pIC50 was 5.61 with Trypanosoma cruzi, at most 4.39 with Leishmania infantum, 5.22 in data set [2] and 5.17 in data set [3]. The CC50 is above 64 µM in data set [1] and at least 40.3 µM in data set [4].

For `O=c1[nH]cnn2c([C@@H]3O[C@H](CO)[C@@H](O)[C@H]3O)ccc12`, the pIC50 with Trypanosoma cruzi is 5.12; with Leishmania infantum it was 5.25; in data set [2], 5.15; in data set [3], 5.45. In addition, the CC50 was above 64 µM in data set [1] and 49.4 µM in data set [4].

Take `O=c1[nH]cnn2c([C@@H]3O[C@H](CO)C[C@H]3O)ccc12`: the pIC50 was below 4.19 in the data set on Trypanosoma cruzi, below 4.19 with Leishmania infantum, 4.47 in data set [2] and below 4.19 in data set [3]. Moreover, the CC50 in data set [1] and in data set [4] was above 64 µM in each case.

On to `Nc1ncnc2c([C@@H]3O[C@H](CO)[C@@H](O)[C@H]3O)cn(-c3ccc(Br)cc3)c12`, for which the pIC50 in the data set with Trypanosoma cruzi was 6.34; with Leishmania infantum it was at most 4.29; in data set [2], 4.54; in data set [3], 4.38. Besides, the CC50 in data set [1] and in data set [4] was above 64 µM in each case.

For `Nc1ncnn2c([C@@H]3O[C@H](CO)[C@@H](O)[C@H]3O)cnc12`, the pIC50 in the data set on Trypanosoma cruzi is 6.21; in the data set with Leishmania infantum, 5.29; in data set [2], 5.70; in data set [3], above 6.60. For the same compound, the figures for the CC50 in data set [1] and in data set [4] were 32 µM and 1.41 µM, respectively.

Regarding `Nc1ncnc2c([C@@H]3O[C@H](CO)[C@@H](O)[C@H]3O)cn(-c3ccc(Cl)cc3)c12`, the pIC50 with Trypanosoma cruzi is 6.47; in the data set on Leishmania infantum, below 4.19; in data set [2], 4.58; in data set [3], 4.57. Besides, the CC50 in data set [1] and in data set [4] was above 64 µM in each case.

Regarding `Nc1nccn2c([C@@H]3O[C@H](CO)C[C@H]3O)cnc12`, the pIC50 in the data set on Trypanosoma cruzi was below 4.19; with Leishmania infantum it was below 4.19; in data set [2], 4.25; in data set [3], below 4.19. Further, the CC50 in data set [1] and in data set [4] was above 64 µM in each case.

As to `OC[C@H]1O[C@@H](c2cnn3c(O)ncnc23)[C@H](O)[C@@H]1O`, the pIC50 in the data set with Trypanosoma cruzi was 5.00; in the data set on Leishmania infantum, 4.47; in data set [2] it was 4.44; in data set [3], 4.76. Further, the CC50 in data set [1] and in data set [4] was above 64 µM each time.

On to `O=C(Cn1ccnc1[N+](=O)[O-])NCc1ccccc1` [BENZNIDAZOLE], for which, in the data set on Trypanosoma cruzi, the pIC50 was 5.69.

For `N#C[C@@]1(c2ccc3c(N)ncnn23)O[C@H](CO)[C@@H](O)[C@H]1O` [GS-441524], the pIC50 is below 4.19 in the data set with Trypanosoma cruzi, below 4.19 with Leishmania infantum, 6.24 in data set [2] and 5.05 in data set [3]. The CC50 in data set [1] and in data set [4] was above 64 µM throughout.

In the case of `CCCCCCCCCCCCCCCCOP(=O)([O-])OCC[N+](C)(C)C` [MILTEFOSINE], the pIC50 with Leishmania infantum is 5.13.

In the case of `Cc1ccc(C(=O)Nc2ccc(S(=O)(=O)O)c3cc(S(=O)(=O)O)cc(S(=O)(=O)O)c23)cc1NC(=O)c1cccc(NC(=O)Nc2cccc(C(=O)Nc3cc(C(=O)Nc4ccc(S(=O)(=O)O)c5cc(S(=O)(=O)O)cc(S(=O)(=O)O)c45)ccc3C)c2)c1` [SURAMIN], in data set [2], the pIC50 was 7.40.
